According to PubChem BioAssay (NCI):
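Protocol summary: plate cells (96-well), add compound at 5 concentrations, incubate 48 h, interpolate endpoints linearly. At the GI50, growth is halved. The concentration for full growth arrest is given as TGI.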

Columns and labels:
Experiment in all cases: NCI tumour cell line growth inhibition, 48 h
NCI-H23 lung = tested on: NCI-H23 lung
NCI-H226 lung = tested on: NCI-H226 lung
HOP-92 NSCLC = tested on: HOP-92 NSCLC
RXF 393 renal = tested on: RXF 393 renal
EKVX NSCLC = tested on: EKVX NSCLC
OVCAR-5 ovarian = tested on: OVCAR-5 ovarian
HT29 colon = tested on: HT29 colon
COLO 205 colon = tested on: COLO 205 colon
T-47D breast = tested on: T-47D breast
HS 578T breast = tested on: HS 578T breast

Which results are given for `CN=c1ss/c(=N\C(=S)N(C)C)n1C1CCCCC1`?
TGI (NCI-H23 lung): > 31.6 µM; TGI (NCI-H226 lung): > 31.6 µM; TGI (HOP-92 NSCLC): > 10 µM; TGI (RXF 393 renal): > 31.6 µM; TGI (EKVX NSCLC): > 31.6 µM; TGI (OVCAR-5 ovarian): > 31.6 µM; TGI (HT29 colon): > 31.6 µM; TGI (COLO 205 colon): > 31.6 µM

For `CN(C)CCCNC(=O)c1cccc2nc3ccccc3nc12`, which TGI (NCI-H23 lung) is on record?
The TGI was 33.5 µM.

And the TGI (NCI-H226 lung)?
Its TGI is 39.1 µM.

What about the TGI (HOP-92 NSCLC) of the same compound?
Its TGI is > 78.4 µM.

What about the TGI (RXF 393 renal) of the same compound?
Its TGI is 34.6 µM.

What about the TGI (EKVX NSCLC) of the same compound?
The TGI was > 77.4 µM.

What about the TGI (OVCAR-5 ovarian) of the same compound?
The TGI was 54.3 µM.

And the TGI (HT29 colon)?
Its TGI is 36.5 µM.

What about the TGI (COLO 205 colon) of the same compound?
The TGI was > 48.3 µM.

Which results are given for `CC1=C(C(=O)Nc2cccc(C(F)(F)F)c2)C(c2ccccc2F)C(C(=O)Nc2cccc(C(F)(F)F)c2)=C(C)N1`?
TGI (NCI-H23 lung): 17 µM; TGI (NCI-H226 lung): 18.4 µM; TGI (HOP-92 NSCLC): 9.11 µM; TGI (RXF 393 renal): 15.5 µM; TGI (EKVX NSCLC): 17.5 µM; TGI (OVCAR-5 ovarian): 24.5 µM; TGI (HT29 colon): 11.5 µM; TGI (COLO 205 colon): 20.5 µM

For `Nc1nc2c(c(=O)[nH]1)N=C(COP(=O)(O)OP(=O)(O)O)CN2`, which TGI (NCI-H23 lung) is on record?
Its TGI is > 100 µM.

And the TGI (NCI-H226 lung)?
The TGI was > 100 µM.

What about the TGI (T-47D breast) of the same compound?
The TGI was > 100 µM.

And the TGI (RXF 393 renal)?
Its TGI is > 100 µM.

What about the TGI (EKVX NSCLC) of the same compound?
Its TGI is > 100 µM.

And the TGI (OVCAR-5 ovarian)?
The TGI was > 100 µM.

What about the TGI (HT29 colon) of the same compound?
Its TGI is > 100 µM.

What about the TGI (HS 578T breast) of the same compound?
The TGI was > 100 µM.

And the TGI (COLO 205 colon)?
The TGI was > 100 µM.

With `C=C(CS(=O)(=O)c1ccccc1)C(=O)OCC` as the compound, how does the TGI (NCI-H23 lung) read?
Its TGI is 37.2 µM.

What about the TGI (NCI-H226 lung) of the same compound?
Its TGI is 58.1 µM.

What about the TGI (HOP-92 NSCLC) of the same compound?
The TGI was 40 µM.

What about the TGI (RXF 393 renal) of the same compound?
The TGI was 24.4 µM.

And the TGI (EKVX NSCLC)?
The TGI was 39.9 µM.

What about the TGI (OVCAR-5 ovarian) of the same compound?
The TGI was 34.8 µM.

And the TGI (HT29 colon)?
The TGI was 23.3 µM.

And the TGI (COLO 205 colon)?
Its TGI is 38.9 µM.

Which results are given for `Cc1cc(C(=O)N2CCN(C)CC2)c2c(=O)n(-c3ccccc3)c(=O)n(CC(O)CN3CCN(c4ncccn4)CC3)c2n1` (stereo not given)?
GI50 (NCI-H23 lung): > 100 µM; TGI (NCI-H23 lung): > 100 µM; GI50 (NCI-H226 lung): > 100 µM; TGI (NCI-H226 lung): > 100 µM; GI50 (HOP-92 NSCLC): > 100 µM; TGI (HOP-92 NSCLC): > 100 µM; GI50 (T-47D breast): > 100 µM; TGI (T-47D breast): > 100 µM; GI50 (EKVX NSCLC): > 100 µM; TGI (EKVX NSCLC): > 100 µM; GI50 (OVCAR-5 ovarian): > 100 µM; TGI (OVCAR-5 ovarian): > 100 µM; GI50 (HT29 colon): > 100 µM; TGI (HT29 colon): > 100 µM; GI50 (HS 578T breast): > 100 µM; TGI (HS 578T breast): > 100 µM; GI50 (COLO 205 colon): > 100 µM; TGI (COLO 205 colon): > 100 µM

Which GI50 (NCI-H23 lung) does the source give for `COc1cc(-c2nccc3[nH]c(-c4cccc5[nH]ccc45)nc23)cc(OC)c1OC` here?
The GI50 was < 0.01 µM.

What about the TGI (NCI-H23 lung) of the same compound?
The TGI was 19.1 µM.

And the GI50 (NCI-H226 lung)?
Its GI50 is 4.06 µM.

And the TGI (NCI-H226 lung)?
Its TGI is 22.5 µM.

And the GI50 (HOP-92 NSCLC)?
The GI50 was < 0.01 µM.

What about the TGI (HOP-92 NSCLC) of the same compound?
Its TGI is 19 µM.

And the GI50 (T-47D breast)?
The GI50 was 4.94 µM.

And the TGI (T-47D breast)?
Its TGI is 27.3 µM.

And the GI50 (EKVX NSCLC)?
The GI50 was 0.0186 µM.

What about the TGI (EKVX NSCLC) of the same compound?
The TGI was 22 µM.

And the GI50 (OVCAR-5 ovarian)?
Its GI50 is 3.89 µM.

What about the TGI (OVCAR-5 ovarian) of the same compound?
The TGI was 27.6 µM.

What about the GI50 (HT29 colon) of the same compound?
The GI50 was < 0.01 µM.

And the TGI (HT29 colon)?
Its TGI is 1.26 µM.

And the GI50 (HS 578T breast)?
Its GI50 is < 0.01 µM.

And the TGI (HS 578T breast)?
Its TGI is 23.9 µM.

And the GI50 (COLO 205 colon)?
The GI50 was < 0.01 µM.

And the TGI (COLO 205 colon)?
Its TGI is < 0.01 µM.

How did the GI50 (NCI-H23 lung) turn out when `COc1cc(C2CC(=O)c3c(C)nn(-c4nc5ccccc5[nH]4)c3C2)cc(OC)c1OC` (stereo not given) was run?
The GI50 was > 100 µM.

And the TGI (NCI-H23 lung)?
The TGI was > 100 µM.

What about the GI50 (RXF 393 renal) of the same compound?
The GI50 was 2.12 µM.

What about the TGI (RXF 393 renal) of the same compound?
The TGI was 7.8 µM.

What about the GI50 (OVCAR-5 ovarian) of the same compound?
The GI50 was > 100 µM.

What about the TGI (OVCAR-5 ovarian) of the same compound?
The TGI was > 100 µM.

And the GI50 (HT29 colon)?
Its GI50 is > 100 µM.

And the TGI (HT29 colon)?
Its TGI is > 100 µM.

And the GI50 (COLO 205 colon)?
Its GI50 is > 100 µM.

And the TGI (COLO 205 colon)?
The TGI was > 100 µM.

What does the source list for `COc1ccc2oc(-c3cc4cc(OC)ccc4o3)cc2c1`?
TGI (NCI-H23 lung): > 100 µM; TGI (HOP-92 NSCLC): > 100 µM; TGI (RXF 393 renal): > 100 µM; TGI (EKVX NSCLC): > 100 µM; TGI (OVCAR-5 ovarian): > 100 µM; TGI (COLO 205 colon): > 100 µM

`COC(=O)[C@H]1CC(=O)C=C2CCCC21` (stereo not given in full) was tested. Which TGI (NCI-H23 lung) did it give?
The TGI was > 100 µM.

What about the TGI (HOP-92 NSCLC) of the same compound?
Its TGI is > 100 µM.

What about the TGI (RXF 393 renal) of the same compound?
The TGI was > 100 µM.

And the TGI (EKVX NSCLC)?
Its TGI is > 100 µM.

And the TGI (HT29 colon)?
Its TGI is > 100 µM.

What about the TGI (COLO 205 colon) of the same compound?
Its TGI is > 100 µM.

What does the source list for `O=C(N/N=C/c1ccncc1)c1ccc(C(F)(F)F)nc1Nc1cccc(C(F)(F)F)c1`?
GI50 (NCI-H23 lung): 4.34 µM; TGI (NCI-H23 lung): 16.2 µM; GI50 (NCI-H226 lung): 2.65 µM; TGI (NCI-H226 lung): 11 µM; GI50 (T-47D breast): 1.78 µM; TGI (T-47D breast): 10.5 µM; GI50 (RXF 393 renal): 1.51 µM; TGI (RXF 393 renal): 5.28 µM; GI50 (EKVX NSCLC): 1.39 µM; TGI (EKVX NSCLC): 8.87 µM; GI50 (OVCAR-5 ovarian): 2.83 µM; TGI (OVCAR-5 ovarian): 14.8 µM; GI50 (HT29 colon): 3.43 µM; TGI (HT29 colon): 11 µM; GI50 (HS 578T breast): 2.02 µM; TGI (HS 578T breast): 8.51 µM; GI50 (COLO 205 colon): 2.57 µM; TGI (COLO 205 colon): 7.51 µM

Which GI50 (NCI-H23 lung) does the source give for `C=C1C(=O)O[C@H]2[C@H]1CC/C(COC(=O)c1cccc3ccccc13)=C\CC[C@@]1(C)O[C@@H]21` here?
Its GI50 is 1.78 µM.

What about the TGI (NCI-H23 lung) of the same compound?
Its TGI is 3.7 µM.

And the GI50 (NCI-H226 lung)?
Its GI50 is 1.29 µM.

What about the TGI (NCI-H226 lung) of the same compound?
Its TGI is 2.83 µM.

What about the GI50 (HOP-92 NSCLC) of the same compound?
The GI50 was 1.01 µM.

And the TGI (HOP-92 NSCLC)?
The TGI was 2.61 µM.

And the GI50 (RXF 393 renal)?
Its GI50 is 1.05 µM.

And the TGI (RXF 393 renal)?
The TGI was 2.32 µM.

And the GI50 (EKVX NSCLC)?
Its GI50 is 1.81 µM.

What about the TGI (EKVX NSCLC) of the same compound?
Its TGI is 3.94 µM.

What about the GI50 (OVCAR-5 ovarian) of the same compound?
The GI50 was 2.27 µM.

And the TGI (OVCAR-5 ovarian)?
Its TGI is 5.58 µM.

And the GI50 (HT29 colon)?
The GI50 was 0.696 µM.

What about the TGI (HT29 colon) of the same compound?
The TGI was 2.42 µM.

And the GI50 (HS 578T breast)?
The GI50 was 1.98 µM.

And the TGI (HS 578T breast)?
Its TGI is 6.01 µM.

What about the GI50 (COLO 205 colon) of the same compound?
Its GI50 is 1.64 µM.

And the TGI (COLO 205 colon)?
The TGI was 3.16 µM.

For `CC(C)(C)C1CCP(=O)(c2ccccc2)CC1` (stereo not given), which TGI (NCI-H23 lung) is on record?
Its TGI is > 100 µM.

And the TGI (NCI-H226 lung)?
The TGI was > 100 µM.

And the TGI (RXF 393 renal)?
The TGI was > 100 µM.

What about the TGI (EKVX NSCLC) of the same compound?
Its TGI is > 100 µM.

What about the TGI (OVCAR-5 ovarian) of the same compound?
Its TGI is > 100 µM.

And the TGI (HT29 colon)?
Its TGI is > 100 µM.

What about the TGI (COLO 205 colon) of the same compound?
Its TGI is > 100 µM.

For `Cc1ccc(C)c(NC(=O)C(=O)CC(=O)c2cccc3ccccc23)c1`, which TGI (NCI-H23 lung) is on record?
The TGI was > 100 µM.

What about the TGI (NCI-H226 lung) of the same compound?
The TGI was > 100 µM.

What about the TGI (HOP-92 NSCLC) of the same compound?
The TGI was > 100 µM.

And the TGI (RXF 393 renal)?
The TGI was > 100 µM.

What about the TGI (EKVX NSCLC) of the same compound?
Its TGI is > 100 µM.

And the TGI (OVCAR-5 ovarian)?
The TGI was > 100 µM.

What about the TGI (HT29 colon) of the same compound?
The TGI was > 100 µM.

What about the TGI (COLO 205 colon) of the same compound?
Its TGI is > 100 µM.
